Calls of active or inactive are those of the source. The rule behind the calls is not given here.
Tests used:
D(2) dopamine receptor = D(2) dopamine receptor (Homo sapiens, UniProt P14416); assay: Displacement of [3H]methyl-spiperone from recombinant human D2S receptor measured after 60 mins by scintillation counting analysis
D(3) dopamine receptor = D(3) dopamine receptor (Homo sapiens, UniProt P35462); assay: Displacement of [3H]methyl-spiperone from recombinant human D3 receptor measured after 60 mins by scintillation counting analysis
Chain of D(3) dopamine receptor (P35462 whole entry): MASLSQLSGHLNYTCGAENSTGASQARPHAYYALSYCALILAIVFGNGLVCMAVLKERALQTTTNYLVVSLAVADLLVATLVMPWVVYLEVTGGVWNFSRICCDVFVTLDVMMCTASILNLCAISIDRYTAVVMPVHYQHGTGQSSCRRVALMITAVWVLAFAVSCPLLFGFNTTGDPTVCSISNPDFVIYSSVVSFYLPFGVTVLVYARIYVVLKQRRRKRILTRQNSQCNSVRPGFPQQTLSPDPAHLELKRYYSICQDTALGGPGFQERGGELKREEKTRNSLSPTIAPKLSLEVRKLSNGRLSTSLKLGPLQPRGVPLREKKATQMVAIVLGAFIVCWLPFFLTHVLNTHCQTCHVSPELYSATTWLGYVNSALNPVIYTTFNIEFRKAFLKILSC

[1] = target: Sigma intracellular receptor 2 (Homo sapiens) (UniProt Q5BJF2); assay: Displacement of [3H]-DTG/(+) pentazocine from human sigma2 receptor at 3 uM measured after 60 mins by scintillation counting analysis
Chain of Sigma intracellular receptor 2 (Homo sapiens) (Q5BJF2 whole entry): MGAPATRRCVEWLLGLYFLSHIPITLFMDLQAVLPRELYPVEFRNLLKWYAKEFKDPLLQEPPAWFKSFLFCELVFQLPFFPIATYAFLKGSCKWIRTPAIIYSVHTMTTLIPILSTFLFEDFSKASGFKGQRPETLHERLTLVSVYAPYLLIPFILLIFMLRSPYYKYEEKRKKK

[2] = target: Voltage-gated inwardly rectifying potassium channel KCNH2 (Homo sapiens, UniProt Q12809); assay: Displacement of [3H]dofetilide from recombinant human ERG stably expressed in HEK293 cell membranes measured after 60 mins by scintillation counting analysis; format: toxicity, Membrane
Chain of Voltage-gated inwardly rectifying potassium channel KCNH2 (Q12809 whole entry): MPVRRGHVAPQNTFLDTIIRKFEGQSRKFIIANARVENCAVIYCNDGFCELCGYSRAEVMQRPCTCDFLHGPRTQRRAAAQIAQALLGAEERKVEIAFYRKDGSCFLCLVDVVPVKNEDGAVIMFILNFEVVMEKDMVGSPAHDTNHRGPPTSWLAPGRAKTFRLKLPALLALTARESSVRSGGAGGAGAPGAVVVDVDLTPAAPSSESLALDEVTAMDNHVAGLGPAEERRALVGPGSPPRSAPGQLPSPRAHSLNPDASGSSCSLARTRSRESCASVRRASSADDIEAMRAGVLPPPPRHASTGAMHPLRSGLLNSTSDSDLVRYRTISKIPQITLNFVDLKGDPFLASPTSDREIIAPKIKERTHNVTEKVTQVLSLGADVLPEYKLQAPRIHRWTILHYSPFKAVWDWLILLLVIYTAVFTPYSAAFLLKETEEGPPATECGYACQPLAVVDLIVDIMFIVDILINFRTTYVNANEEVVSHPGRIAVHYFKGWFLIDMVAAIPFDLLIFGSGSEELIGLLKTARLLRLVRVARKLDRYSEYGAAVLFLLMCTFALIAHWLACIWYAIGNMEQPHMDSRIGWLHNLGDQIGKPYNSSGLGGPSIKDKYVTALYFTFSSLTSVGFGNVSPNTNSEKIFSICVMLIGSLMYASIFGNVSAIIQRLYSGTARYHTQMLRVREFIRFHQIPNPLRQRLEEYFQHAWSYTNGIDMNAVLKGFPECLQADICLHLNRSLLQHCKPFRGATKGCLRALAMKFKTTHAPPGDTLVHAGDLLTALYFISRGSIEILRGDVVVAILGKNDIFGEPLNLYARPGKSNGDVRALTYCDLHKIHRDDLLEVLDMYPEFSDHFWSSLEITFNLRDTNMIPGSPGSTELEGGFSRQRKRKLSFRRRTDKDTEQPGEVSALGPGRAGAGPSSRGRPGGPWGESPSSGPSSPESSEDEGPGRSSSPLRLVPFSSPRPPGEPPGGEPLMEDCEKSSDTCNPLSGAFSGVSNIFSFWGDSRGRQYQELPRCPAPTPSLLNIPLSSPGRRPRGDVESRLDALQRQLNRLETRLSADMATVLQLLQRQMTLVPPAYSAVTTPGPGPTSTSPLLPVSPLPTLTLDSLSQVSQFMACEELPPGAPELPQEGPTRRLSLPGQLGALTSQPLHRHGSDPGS

[3] = target: D(1A) dopamine receptor (Homo sapiens) (UniProt P21728); assay: Displacement of [3H]SCH 23390 from recombinant human D1 receptor at 3 uM measured after 60 mins by scintillation counting analysis
Chain of D(1A) dopamine receptor (Homo sapiens) (P21728 whole entry): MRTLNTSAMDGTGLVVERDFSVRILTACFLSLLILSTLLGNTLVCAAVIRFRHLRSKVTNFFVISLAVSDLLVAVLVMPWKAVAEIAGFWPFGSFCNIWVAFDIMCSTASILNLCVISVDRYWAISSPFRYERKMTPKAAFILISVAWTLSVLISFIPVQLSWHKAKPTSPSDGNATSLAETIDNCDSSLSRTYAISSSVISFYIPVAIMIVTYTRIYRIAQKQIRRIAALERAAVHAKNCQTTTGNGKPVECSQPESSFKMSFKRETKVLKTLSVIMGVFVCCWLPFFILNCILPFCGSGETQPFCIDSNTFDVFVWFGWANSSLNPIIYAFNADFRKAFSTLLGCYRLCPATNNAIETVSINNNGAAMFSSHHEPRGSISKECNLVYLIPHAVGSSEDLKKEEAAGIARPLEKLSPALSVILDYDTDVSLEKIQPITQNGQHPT

Chain of D(2) dopamine receptor (P14416 whole entry): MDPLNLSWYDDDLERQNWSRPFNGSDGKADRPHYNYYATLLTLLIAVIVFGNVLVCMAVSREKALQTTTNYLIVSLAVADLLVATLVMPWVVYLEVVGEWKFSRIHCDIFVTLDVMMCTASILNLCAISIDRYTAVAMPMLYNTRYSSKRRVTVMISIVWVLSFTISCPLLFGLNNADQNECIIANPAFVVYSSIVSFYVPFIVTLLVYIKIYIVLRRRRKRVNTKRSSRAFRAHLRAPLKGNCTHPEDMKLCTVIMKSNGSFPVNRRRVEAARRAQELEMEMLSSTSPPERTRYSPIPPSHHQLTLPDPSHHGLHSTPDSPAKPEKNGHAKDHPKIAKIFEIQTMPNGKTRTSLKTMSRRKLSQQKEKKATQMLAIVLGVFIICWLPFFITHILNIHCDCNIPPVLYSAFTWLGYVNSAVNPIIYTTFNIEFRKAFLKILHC

Compound: c1ccc(Cc2cn(C3CCN(Cc4ccccc4)CC3)nn2)cc1
- Ki (D(2) dopamine receptor): 6.3 µM
- Ki (D(3) dopamine receptor): > 10 µM
- Activity [1]: Active
- Ki [2]: 4.6 µM
- Activity [3]: Active

— ChEMBL document CHEMBL5113450, “Discovery of potent dual ligands for dopamine D4 and σ1 receptors” (Bioorg Med Chem, 2022)
